Reference: patent US11091478B2 (Fochon Pharmaceuticals, Ltd., priority 2017, dated 2021)

How the values were obtained:
[1] = tested on: DOHH2 cells; assay: Cell proliferation assay (MTS), DOHH2 cells, 120 h; assay type: cell-based; conditions: Homo sapiens, DOHH-2, 120 h
Method in brief: (§1)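 Treatment lasts 72 h for RS4;11 and 120 h for DOHH2 cells seeded at 5000 per well in serum-containing RPMI-1640. A 2 h MTS step, halted with 10% SDS, precedes dual-wavelength absorbance reading and IC50 fitting.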

[2] = tested on: RS4;11 cells; assay: Cell proliferation assay (MTS), RS4;11 cells, 72 h; assay type: cell-based; conditions: Homo sapiens, RS4-11, 72 h
Method in brief: as §1

Row | IC50 [2] | Compound | IC50 [1]
1 | 58 nM | CC1(C)CCC(CN2CCN(c3ccc(C(=O)NS(=O)(=O)c4cc5c(c([N+](=O)[O-])c4)N[C@H](CN=S4(=O)CCCC4)CO5)c(Oc4cnc5[nH]ccc5c4)c3)CC2)=C(c2ccc(Cl)cc2)C1 [Example 2-71, (R)-2-((1H-pyrrolo[2,3-b]pyridin-5-yl)oxy)-4-(4-((4′-chloro-5,5-dimethyl-3,4,5,6-tetra-hydro-[1,1′-biphenyl]-2-yl)methyl)piperazin-1-yl)-N-((5-nitro-3-(((1-oxidotetrahydro-1λ^6-thiophen-1-ylidene)amino)methyl)-3,4-dihydro-2H-benzo[b][1,4]oxazin-7-yl)sulfo-nyl)benzamide] | 43 nM
2 | 6 nM | CC1(C)CCC(CN2CCN(c3ccc(C(=O)NS(=O)(=O)c4cc5c(c([N+](=O)[O-])c4)N[C@H](CN=S4(=O)CCOCC4)CO5)c(Oc4cnc5[nH]ccc5c4)c3)CC2)=C(c2ccc(Cl)cc2)C1 [Example 2-72, (R)-2-((1H-pyrrolo[2,3-b]pyridin-5-yl)oxy)-4-(4-((4′-chloro-5,5-dimethyl-3,4,5,6-tetra-hydro-[1,1′-biphenyl]-2-yl)methyl)piperazin-1-yl)-N-((5-nitro-3-(((4-oxido-1,4λ^6-oxa-thian-4-ylidene)amino)methyl)-3,4-dihydro-2H-benzo[b][1,4]oxazin-7-yl)sulfonyl)ben-zamide] | 24 nM
3 | 79 nM | CC1(C)CCC(CN2CCN(c3ccc(C(=O)NS(=O)(=O)c4cc5c(c([N+](=O)[O-])c4)N[C@H](CCN=S4(=O)CCCC4)CO5)c(Oc4cnc5[nH]ccc5c4)c3)CC2)=C(c2ccc(Cl)cc2)C1 [Example 2-73, (R)-2-((1H-pyrrolo[2,3-b]pyridin-5-yl)oxy)-4-(4-((4′-chloro-5,5-dimethyl-3,4,5,6-tetra-hydro-[1,1′-biphenyl]-2-yl)methyl)piperazin-1-yl)-N-((5-nitro-3-(2-((1-oxidotetrahydro-1λ^6-thiophen-1-ylidene)amino)ethyl)-3,4-dihydro-2H-benzo[b][1,4]oxazin-7-yl)sulfonyl)benzamide] | 69 nM
4 | 64 nM | CC1(C)CCC(CN2CCN(c3ccc(C(=O)NS(=O)(=O)c4cc5c(c([N+](=O)[O-])c4)N[C@H](CCN=S4(=O)CCOCC4)CO5)c(Oc4cnc5[nH]ccc5c4)c3)CC2)=C(c2ccc(Cl)cc2)C1 [Example 2-74, (R)-2-((1H-pyrrolo[2,3-b]pyridin-5-yl)oxy)-4-(4-((4′-chloro-5,5-dimethyl-3,4,5,6-tetra-hydro-[1,1′-biphenyl]-2-yl)methyl)piperazin-1-yl)-N-((5-nitro-3-(2-((4-oxido-1,4λ^6-ox-athian-4-lidene)amino)ethyl)-3,4-dihydro-2H-benzo[b][1,4]oxazin-7-yl)sulfonyl)ben-zamide] | 108 nM
5 | 1 nM | CC1(C)CCC(CN2CCN(c3ccc(C(=O)NS(=O)(=O)c4cc5c(c([N+](=O)[O-])c4)N[C@@H](CN=S(C)(C)=O)CO5)c(Oc4cnc5[nH]ccc5c4)c3)CC2)=C(c2ccc(Cl)cc2)C1 [Example 2-75, (S)-2-((1H-pyrrolo[2,3-b]pyridin-5-yl)oxy)-4-(4-((4′-chloro-5,5-dimethyl-3,4,5,6-tetra-hydro-[1,1′-biphenyl]-2-yl)methyl)piperazin-1-yl)-N-((3-(((dimethyl(oxo)-λ^6-sulfanyl-idene)amino)methyl)-5-nitro-3,4-dihydro-2H-benzo[b][1,4]oxazin-7-yl)sulfonyl)benza-mide] | 64 nM
6 | 50 nM | CC1(C)CCC(CN2CCN(c3ccc(C(=O)NS(=O)(=O)c4cc5c(c([N+](=O)[O-])c4)N[C@@H](CN=S4(=O)CCOCC4)CO5)c(Oc4cnc5[nH]ccc5c4)c3)CC2)=C(c2ccc(Cl)cc2)C1 [Example 2-77, (S)-2-((1H-pyrrolo[2,3-b]pyridin-5-yl)oxy)-4-(4-((4′-chloro-5,5-dimethyl-3,4,5,6-tetra-hydro-[1,1′-biphenyl]-2-yl)methyl)piperazin-1-yl)-N-((5-nitro-3-(((4-oxido-1,4λ^6-oxa-thian-4-ylidene)amino)methyl)-3,4-dihydro-2H-benzo[b][1,4]oxazin-7-yl)sulfonyl)ben-zamide] | 602 nM
7 | 6 nM | CC1(C)CCC(CN2CCN(c3ccc(C(=O)NS(=O)(=O)c4cc5c(c([N+](=O)[O-])c4)N[C@@H](CCN=S4(=O)CCOCC4)CO5)c(Oc4cnc5[nH]ccc5c4)c3)CC2)=C(c2ccc(Cl)cc2)C1 [Example 2-78, (S)-2-((1H-pyrrolo[2,3-b]pyridin-5-yl)oxy)-4-(4-((4′-chloro-5,5-dimethyl-3,4,5,6-tetra-hydro-[1,1′-biphenyl]-2-yl)methyl)piperazin-1-yl)-N-((5-nitro-3-(2-((4-oxido-1,4λ^6-ox-athian-4-ylidene)amino)ethyl)-3,4-dihydro-2H-benzo[b][1,4]oxazin-7-yl)sulfonyl)ben-zamide] | 15 nM
8 | 7 nM | C[C@H]1CN(C[C@@H]2COc3cc(S(=O)(=O)NC(=O)c4ccc(N5CCN(CC6=C(c7ccc(Cl)cc7)CC(C)(C)CC6)CC5)cc4Oc4cnc5[nH]ccc5c4)cc([N+](=O)[O-])c3N2)CCO1 [Example 2-79, 2-((1H-pyrrolo[2,3-b]pyridin-5-yl)oxy)-4-(4-((4′-chloro-5,5-dimethyl-3,4,5,6-tetrahydro-[1,1′-biphenyl]-2-yl)methyl)piperazin-1-yl)-N-(((R)-3-(((S)-2-methylmorpholino)methyl)-5-nitro-3,4-dihydro-2H-benzo[b][1,4]oxazin-7-yl)sulfonyl)benzamide] | 55 nM
9 | 7 nM | C[C@H]1COCCN1C[C@@H]1COc2cc(S(=O)(=O)NC(=O)c3ccc(N4CCN(CC5=C(c6ccc(Cl)cc6)CC(C)(C)CC5)CC4)cc3Oc3cnc4[nH]ccc4c3)cc([N+](=O)[O-])c2N1 [Example 2-80, 2-((1H-pyrrolo[2,3-b]pyridin-5-yl)oxy)-4-(4-((4′-chloro-5,5-dimethyl-3,4,5,6-tetrahydro-[1,1′-biphenyl]-2-yl)methyl)piperazin-1-yl)-N-(((R)-3-(((S)-3-methylmorpholino)meth-yl)-5-nitro-3,4-dihydro-2H-benzo[b][1,4]oxazin-7-yl)sulfonyl)benzamide] | 49 nM
10 | 3 nM | C[C@@H]1COCCN1C[C@@H]1COc2cc(S(=O)(=O)NC(=O)c3ccc(N4CCN(CC5=C(c6ccc(Cl)cc6)CC(C)(C)CC5)CC4)cc3Oc3cnc4[nH]ccc4c3)cc([N+](=O)[O-])c2N1 [Example 2-81, 2-((1H-pyrrolo[2,3-b]pyridin-5-yl)oxy)-4-(4-((4′-chloro-5,5-dimethyl-3,4,5,6-tetra-hydro-[1,1′-biphenyl]-2-yl)methyl)piperazin-1-yl)-N-(((R)-3-(((R)-3-methylmorpholino)meth-yl)-5-nitro-3,4-dihydro-2H-benzo[b][1,4]oxazin-7-yl)sulfonyl)benzamide] | 14 nM
11 | 1 nM | CC1(C)CCC(CN2CCN(c3ccc(C(=O)NS(=O)(=O)c4cc5c(c([N+](=O)[O-])c4)N[C@H](CN4C[C@@H]6C[C@H]4CO6)CO5)c(Oc4cnc5[nH]ccc5c4)c3)CC2)=C(c2ccc(Cl)cc2)C1 [Example 2-82, 2-((1H-pyrrolo[2,3-b]pyridin-5-yl)oxy)-N-(((R)-3-(((1S,4S)-2-oxa-5-azabicyclo[2.2.1]heptan-5-yl)methyl)-5-nitro-3,4-dihydro-2H-benzo[b][1,4]oxazin-7-yl)sulfonyl)-4-(4-((4′-chloro-5,5-dimethyl-3,4,5,6-tetrahydro-[1,1′-biphenyl]-2-yl)methyl)piperazin-1-yl) benzamide] | 9 nM
12 | 1 nM | CC1(C)CCC(CN2CCN(c3ccc(C(=O)NS(=O)(=O)c4cc5c(c([N+](=O)[O-])c4)N[C@H](CN4C[C@H]6C[C@@H]4CO6)CO5)c(Oc4cnc5[nH]ccc5c4)c3)CC2)=C(c2ccc(Cl)cc2)C1 [Example 2-83, 2-((1H-pyrrolo[2,3-b]pyridin-5-yl)oxy)-N-(((R)-3-(((1R,4R)-2-oxa-5-azabicyclo[2.2.1]heptan-5-yl)methyl)-5-nitro-3,4-dihydro-2H-benzo[b][1,4]oxazin-7-yl)sulfonyl)-4-(4-((4′-chloro-5,5-dimethyl-3,4,5,6-tetrahydro-[1,1′-biphenyl]-2-yl)methyl)piperazin-1-yl) benzamide] | 13 nM
13 | 26 nM | CC1(C)CCC(CN2CCN(c3ccc(C(=O)NS(=O)(=O)c4cc5c(c([N+](=O)[O-])c4)N[C@H](CN4CCCCC4)CO5)c(Oc4cnc5[nH]ccc5c4)c3)CC2)=C(c2ccc(Cl)cc2)C1 [Example 2-84, (R)-2-((1H-pyrrolo[2,3-b]pyridin-5-yl)oxy)-4-(4-((4′-chloro-5,5-dimethyl-3,4,5,6-tetra-hydro-[1,1′-biphenyl]-2-yl)methyl)piperazin-1-yl)-N-((5-nitro-3-(piperidin-1-ylmethyl)-3,4-dihydro-2H-benzo[b][1,4]oxazin-7-yl)sulfonyl)benzamide] | 82 nM
14 | 7 nM | CC1(C)CCC(CN2CCN(c3ccc(C(=O)NS(=O)(=O)c4cc5c(c([N+](=O)[O-])c4)N[C@@H](CN4C[C@@H]6C[C@H]4CO6)CO5)c(Oc4cnc5[nH]ccc5c4)c3)CC2)=C(c2ccc(Cl)cc2)C1 [Example 2-87, 2-((1H-pyrrolo[2,3-b]pyridin-5-yl)oxy)-N-(((S)-3-(((1S,4S)-2-oxa-5-azabicyclo[2.2.1]heptan-5-yl)methyl)-5-nitro-3,4-dihydro-2H-benzo[b][1,4]oxazin-7-yl)sulfonyl)-4-(4-((4′-chloro-5,5-dimethyl-3,4,5,6-tetrahydro-[1,1′-biphenyl]-2-yl)methyl)piperazin-1-yl) benzamide] | 26 nM
